This is an account of results in patent US20260108455A1, “DEVICE FOR SUSTAINED CONTROLLED RELEASE OF A […] ACTIVE SUBSTANCE AND USES THEREOF” (Hylomorph AG, priority 2022, published 2026).

Structures can show the parent of a compound that is named as a salt. Bounds are passed on as bounds.

Series [1] in a line: Drug elution testing (in vitro release) of PLGA films. In kind it is physicochemical. The note with it: all prototypes, phase 2. From the text:
The main goals are summarized below: • 1. Prepare placebo films with multiple grades of PLGA polymers (Table 1) using solvent casting method. Evaluate both single and dual layer film designs. • 2. […] Create HPLC assay and drug elution method based on provided information. Optimize method for use in formulation development.

A short description of series [2]: Solubility in water (distilled and deionized water). Format: physicochemical. The note with it: 20 °C, pH 7, water, neutral pH, i.e. pH of 7 at room temperature. The procedure: Solubility is a chemical property of a molecule in a specific solvent which depends on the chemistry of the two and on the environmental conditions of temperature and pH. […] This at room temperature (20 deg) or body temperature (37 deg) and a pH of 7. Solubility is measured in distilled and deionized water and is given in mg/mL.

In the case of `CN(C)c1ccc(O)c2c1C[C@H]1C[C@H]3[C@H](N(C)C)C(O)=C(C(N)=O)C(=O)[C@@]3(O)C(O)=C1C2=O` [Minocycline HCl, Minocycline Hydrochloride], the “degradation during elution testing” value in series [1] was “Significant degradation”.

For orientation: solubility means how much of the substance goes into solution per volume. In the case of `CO[C@H]1/C=C/O[C@@]2(C)Oc3c(C)c(O)c4c(O)c(c(/C=N/N5CCN(C)CC5)c(O)c4c3C2=O)NC(=O)/C(C)=C\C=C\[C@H](C)[C@H](O)[C@@H](C)[C@@H](O)[C@@H](C)[C@H](OC(C)=O)[C@@H]1C` [Rifampicin], the solubility in series [2] was no more than 2500 µg/mL.
